SMILES strings stand for the structures. Bridge positions count the residues as written; N and C are the ends. Peptide text beside a SMILES is read from it. Some results are limits rather than exact numbers.

This test can be described thus: Inhibition of matriptase (unknown origin) using Ac-RQFRpNA substrate by spectrophotometry method.
Take `CC[C@H](C)[C@@H]1NC(=O)[C@@H]2CCCN2C(=O)[C@@H]2CCCN2C(=O)[C@H]([C@@H](C)CC)NC(=O)[C@H](CO)NC(=O)[C@H](CCCNC(=N)N)NC(=O)[C@H]([C@@H](C)O)NC(=O)[C@@H]2CSSC[C@H](NC1=O)C(=O)N[C@@H](Cc1ccccc1)C(=O)N1CCC[C@H]1C(=O)N[C@H](C(=O)O)CC(=O)NCC(=O)N[C@@H](CCCNC(=N)N)C(=O)N2` (GRCTRSIPPICFPD-OH; disulfide 3-11; lactam N-14): the inhibition constant (Ki) (as a rule, a dissociation constant, usually derived from enzyme kinetics or from competition with a known ligand) stood at 0.546 µM. Compound `CC[C@H](C)[C@@H]1NC(=O)[C@@H]2CCCN2C(=O)[C@@H]2CCCN2C(=O)[C@H](Cc2ccc(O)cc2)NC(=O)[C@H](CO)NC(=O)[C@H](CCCNC(=N)N)NC(=O)[C@H]([C@@H](C)O)NC(=O)[C@@H]2CSSC[C@H](NC1=O)C(=O)N[C@@H](Cc1ccccc1)C(=O)N1CCC[C@H]1C(=O)N[C@H](C(=O)O)CC(=O)NCC(=O)N[C@@H](CCCNC(=N)N)C(=O)N2` (GRCTRSYPPICFPD-OH; disulfide 3-11; lactam N-14) had a Ki of more than 50 µM. In the case of `C[C@@H](O)[C@@H]1NC(=O)[C@@H](NC(=O)[C@H](CCCNC(=N)N)NC(=O)CN)CSSC[C@@H](C(=O)N[C@@H](Cc2cnc[nH]2)C(=O)O)NC(=O)[C@H](CCCNC(=N)N)NC(=O)[C@@H]2CCCN2C(=O)[C@@H]2CCCN2C(=O)[C@H](CC(=O)O)NC(=O)[C@H](CO)NC(=O)[C@H](CCCCN)NC1=O` (H-GRCTKSDPPRCH-OH; disulfide 3-11) it was 0.087 µM; in that of `CC[C@H](C)[C@@H]1NC(=O)[C@H](CO)NC(=O)[C@H](CCCCN)NC(=O)[C@H]([C@@H](C)O)NC(=O)[C@@H](NC(=O)[C@H](CCCNC(=N)N)NC(=O)CN)CSSC[C@@H](C(=O)N[C@@H](Cc2cnc[nH]2)C(=O)O)NC(=O)[C@H](CCCNC(=N)N)NC(=O)[C@@H]2CCCN2C(=O)[C@@H]2CCCN2C1=O` (H-GRCTKSIPPRCH-OH; disulfide 3-11), 0.082 µM.

For the origin of these results see BindingDB's records for doi:10.1021/acs.jmedchem.5b01148 (Queensland University of Technology, 2015).
